Test results published in PubChem BioAssay (NCI).
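Step 1: Grow cells in 96-well plates. Step 2: Expose to compound for 48 hours at 5 concentrations. Step 3: Interpolate endpoints linearly; if unreached, use highest concentration. The concentration for full growth arrest is given as TGI.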

Columns and labels:
Experiment in all cases: NCI anticancer screen, dose series, 48 h
786-0 renal = test system: 786-0 renal
A498 renal = test system: A498 renal
A549 NSCLC = test system: A549 NSCLC
ACHN renal = test system: ACHN renal
BT-549 breast = test system: BT-549 breast
CAKI-1 renal = test system: CAKI-1 renal
CCRF-CEM leukemia = test system: CCRF-CEM leukemia
COLO 205 colon = test system: COLO 205 colon
DU-145 prostate = test system: DU-145 prostate
EKVX NSCLC = test system: EKVX NSCLC
HCC-2998 colon = test system: HCC-2998 colon
HCT-116 colon = test system: HCT-116 colon
HCT-15 colon = test system: HCT-15 colon
HOP-62 NSCLC = test system: HOP-62 NSCLC
HOP-92 NSCLC = test system: HOP-92 NSCLC
HS 578T breast = test system: HS 578T breast
HT29 colon = test system: HT29 colon
IGROV1 ovarian = test system: IGROV1 ovarian
K-562 leukemia = test system: K-562 leukemia
KM12 colon = test system: KM12 colon
LOX IMVI melanoma = test system: LOX IMVI melanoma
M14 melanoma = test system: M14 melanoma
MALME-3M melanoma = test system: MALME-3M melanoma
MCF7 breast = test system: MCF7 breast
MDA-MB-231 breast = test system: MDA-MB-231 breast
MDA-MB-435 = test system: MDA-MB-435
MDA-N = test system: MDA-N
MOLT-4 leukemia = test system: MOLT-4 leukemia
NCI-H226 lung = test system: NCI-H226 lung
NCI-H23 lung = test system: NCI-H23 lung
NCI-H460 lung = test system: NCI-H460 lung
NCI-H522 lung = test system: NCI-H522 lung
NCI/ADR-RES ovarian = test system: NCI/ADR-RES ovarian
OVCAR-3 ovarian = test system: OVCAR-3 ovarian
OVCAR-4 ovarian = test system: OVCAR-4 ovarian
OVCAR-5 ovarian = test system: OVCAR-5 ovarian
OVCAR-8 ovarian = test system: OVCAR-8 ovarian
PC-3 prostate = test system: PC-3 prostate
RPMI-8226 leukemia = test system: RPMI-8226 leukemia
RXF 393 renal = test system: RXF 393 renal
SF-268 CNS = test system: SF-268 CNS
SF-295 CNS = test system: SF-295 CNS
SF-539 CNS = test system: SF-539 CNS
SK-MEL-2 melanoma = test system: SK-MEL-2 melanoma
SK-MEL-28 melanoma = test system: SK-MEL-28 melanoma
SK-MEL-5 melanoma = test system: SK-MEL-5 melanoma
SK-OV-3 ovarian = test system: SK-OV-3 ovarian
SN12C renal = test system: SN12C renal
SNB-19 CNS = test system: SNB-19 CNS
SNB-75 CNS = test system: SNB-75 CNS
SR leukemia = test system: SR leukemia
SW-620 colon = test system: SW-620 colon
T-47D breast = test system: T-47D breast
TK-10 renal = test system: TK-10 renal
U251 CNS = test system: U251 CNS
UACC-257 melanoma = test system: UACC-257 melanoma
UACC-62 melanoma = test system: UACC-62 melanoma
UO-31 renal = test system: UO-31 renal
HL-60(TB) leukemia = test system: HL-60(TB) leukemia

Compound: COC(=O)C(CNC(=O)/C=C/c1ccc(OC)c(OC)c1)NC(=O)/C=C/c1ccc(OC)c(OC)c1 (stereo not given)
- TGI (786-0 renal): > 100 µM
- TGI (A498 renal): > 100 µM
- TGI (A549 NSCLC): > 100 µM
- TGI (ACHN renal): > 100 µM
- TGI (BT-549 breast): > 100 µM
- TGI (CAKI-1 renal): > 100 µM
- TGI (CCRF-CEM leukemia): > 100 µM
- TGI (COLO 205 colon): > 100 µM
- TGI (DU-145 prostate): > 100 µM
- TGI (EKVX NSCLC): > 100 µM
- TGI (HCC-2998 colon): > 100 µM
- TGI (HCT-116 colon): > 100 µM
- TGI (HCT-15 colon): > 100 µM
- TGI (HOP-62 NSCLC): > 100 µM
- TGI (HOP-92 NSCLC): > 100 µM
- TGI (HS 578T breast): > 100 µM
- TGI (HT29 colon): > 100 µM
- TGI (IGROV1 ovarian): > 100 µM
- TGI (K-562 leukemia): > 100 µM
- TGI (KM12 colon): > 100 µM
- TGI (LOX IMVI melanoma): > 100 µM
- TGI (M14 melanoma): > 100 µM
- TGI (MALME-3M melanoma): > 100 µM
- TGI (MCF7 breast): > 100 µM
- TGI (MDA-MB-231 breast): > 100 µM
- TGI (MDA-MB-435): > 100 µM
- TGI (MDA-N): > 100 µM
- TGI (MOLT-4 leukemia): > 100 µM
- TGI (NCI-H226 lung): > 100 µM
- TGI (NCI-H23 lung): > 100 µM
- TGI (NCI-H460 lung): > 100 µM
- TGI (NCI-H522 lung): > 100 µM
- TGI (NCI/ADR-RES ovarian): > 100 µM
- TGI (OVCAR-3 ovarian): > 100 µM
- TGI (OVCAR-4 ovarian): > 100 µM
- TGI (OVCAR-5 ovarian): > 100 µM
- TGI (OVCAR-8 ovarian): > 100 µM
- TGI (PC-3 prostate): > 100 µM
- TGI (RPMI-8226 leukemia): > 100 µM
- TGI (RXF 393 renal): > 100 µM
- TGI (SF-268 CNS): > 100 µM
- TGI (SF-295 CNS): > 100 µM
- TGI (SF-539 CNS): > 100 µM
- TGI (SK-MEL-2 melanoma): > 100 µM
- TGI (SK-MEL-28 melanoma): > 100 µM
- TGI (SK-MEL-5 melanoma): > 100 µM
- TGI (SK-OV-3 ovarian): > 100 µM
- TGI (SN12C renal): > 100 µM
- TGI (SNB-19 CNS): > 100 µM
- TGI (SNB-75 CNS): > 100 µM
- TGI (SR leukemia): > 100 µM
- TGI (SW-620 colon): > 100 µM
- TGI (T-47D breast): > 100 µM
- TGI (TK-10 renal): > 100 µM
- TGI (U251 CNS): > 100 µM
- TGI (UACC-257 melanoma): > 100 µM
- TGI (UACC-62 melanoma): > 100 µM
- TGI (UO-31 renal): > 100 µM

Compound: CC1(C)Oc2ccc3ccc(=O)oc3c2C(O)C1O (stereo not given)
- TGI (786-0 renal): > 100 µM
- TGI (A498 renal): > 100 µM
- TGI (A549 NSCLC): > 100 µM
- TGI (ACHN renal): > 100 µM
- TGI (BT-549 breast): 60.9 µM
- TGI (CAKI-1 renal): > 100 µM
- TGI (CCRF-CEM leukemia): 96.9 µM
- TGI (COLO 205 colon): 45.1 µM
- TGI (DU-145 prostate): > 100 µM
- TGI (EKVX NSCLC): > 100 µM
- TGI (HCC-2998 colon): > 100 µM
- TGI (HCT-116 colon): > 100 µM
- TGI (HCT-15 colon): > 100 µM
- TGI (HL-60(TB) leukemia): > 100 µM
- TGI (HOP-62 NSCLC): > 100 µM
- TGI (HOP-92 NSCLC): > 100 µM
- TGI (HS 578T breast): > 100 µM
- TGI (HT29 colon): 71.3 µM
- TGI (IGROV1 ovarian): > 100 µM
- TGI (K-562 leukemia): > 100 µM
- TGI (KM12 colon): > 100 µM
- TGI (LOX IMVI melanoma): > 100 µM
- TGI (M14 melanoma): > 100 µM
- TGI (MALME-3M melanoma): > 100 µM
- TGI (MCF7 breast): > 100 µM
- TGI (MDA-MB-231 breast): > 100 µM
- TGI (MDA-MB-435): > 100 µM
- TGI (MDA-N): > 100 µM
- TGI (MOLT-4 leukemia): 53 µM
- TGI (NCI-H226 lung): > 100 µM
- TGI (NCI-H23 lung): > 100 µM
- TGI (NCI-H460 lung): > 100 µM
- TGI (NCI-H522 lung): > 100 µM
- TGI (NCI/ADR-RES ovarian): > 100 µM
- TGI (OVCAR-3 ovarian): > 100 µM
- TGI (OVCAR-4 ovarian): > 100 µM
- TGI (OVCAR-5 ovarian): > 100 µM
- TGI (OVCAR-8 ovarian): > 100 µM
- TGI (PC-3 prostate): > 100 µM
- TGI (RPMI-8226 leukemia): 97.9 µM
- TGI (RXF 393 renal): > 100 µM
- TGI (SF-268 CNS): > 100 µM
- TGI (SF-295 CNS): > 100 µM
- TGI (SF-539 CNS): 47.8 µM
- TGI (SK-MEL-2 melanoma): > 100 µM
- TGI (SK-MEL-28 melanoma): > 100 µM
- TGI (SK-MEL-5 melanoma): 29.4 µM
- TGI (SN12C renal): > 100 µM
- TGI (SNB-19 CNS): > 100 µM
- TGI (SNB-75 CNS): > 100 µM
- TGI (SR leukemia): > 100 µM
- TGI (SW-620 colon): > 100 µM
- TGI (T-47D breast): > 100 µM
- TGI (U251 CNS): > 100 µM
- TGI (UACC-257 melanoma): 94.9 µM
- TGI (UACC-62 melanoma): > 100 µM
- TGI (UO-31 renal): > 100 µM
